Laboratory results from ChEMBL document CHEMBL4007488, “Amphiphilic Indole Derivatives as Antimycobacterial Agents: Structure-Activity Relationships and Membrane Targeting Properties” (J Med Chem, 2017).
≈ marks a conversion by molar mass, not a printed value.

How the values were obtained:
[1] = test system: Mycobacterium tuberculosis variant bovis; assay: Antimycobacterial activity against Mycobacterium bovis BCG ATCC 35734 after 5 days by broth dilution method; assay type: functional; conditions: ATCC 35734, 120 h
[2] = test system: Mycobacterium tuberculosis variant bovis; assay: Antimycobacterial activity against Mycobacterium bovis BCG ATCC 35734 assessed as growth inhibition at 10 uM after 5 days relative to control; assay type: functional; conditions: ATCC 35734, 120 h, read-out: GI

Row | Structure (SMILES) | MIC50 [1] [µM] | MIC90 [1] [µM] | inhibition of growth at 10 µM [2] [%]
1 | CCCCCCCCn1cc(CN2CCN(CC)CC2)c2cc(F)ccc21 | 13 (≈ 4.86 µg/mL) | 32 (≈ 12 µg/mL) | 99
2 | CCCCCCCCn1cc(CN2CCCCC2)c2cc(Cl)ccc21 | 5 (≈ 1.8 µg/mL) | 9 (≈ 3.25 µg/mL) | 99
3 | CCCCn1cc(CN2CCCCC2)c2cc(F)ccc21 | > 50 | 100 (≈ 28.8 µg/mL) | 99
4 | CCCCCCCCn1cc(CNC23CC4CC(CC(C4)C2)C3)c2cccc(OC)c21 | 3 (≈ 1.27 µg/mL) | 8 (≈ 3.38 µg/mL) | 99
5 | CCCCCCCCn1cc(CN(CC)CCC)c2cc(F)ccc21 | 7 (≈ 2.43 µg/mL) | 39 (≈ 13.5 µg/mL) | 99
6 | CCCCCCCCn1cc(CN(C)C)c2cc(F)ccc21 | 14 (≈ 4.26 µg/mL) | 20 (≈ 6.09 µg/mL) | 99
7 | CCCCCCCCCCCCn1cc(CN2CCCCCC2)c2c(F)cccc21 | 7 (≈ 2.9 µg/mL) | 10 (≈ 4.15 µg/mL) | 99
8 | CCCCCCCCn1cc(CN2CCCCCC2)c2cc(OC)ccc21 | 4 (≈ 1.48 µg/mL) | 5 (≈ 1.85 µg/mL) | 99
9 | Fc1cccc2[nH]cc(CN3CCCCCC3)c12 | > 50 | > 50 | 99
10 | CCCCCCCCn1cc(CN2CCCCC2)c2ccc(OC)cc21 | 7 (≈ 2.5 µg/mL) | 13 (≈ 4.64 µg/mL) | 99
11 | CC(C)=CCC/C(C)=C/Cn1cc(CN2CCCCC2)c2cccnc21 | > 50 | > 50 | 99
12 | CCN(CC)Cc1cn(C/C=C(\C)CCC=C(C)C)c2ccc(F)cc12 | 13 (≈ 4.63 µg/mL) | 24 (≈ 8.56 µg/mL) | 99
13 | CCCCCCCCn1cc(CN2CCCCCC2)c2cc(F)ccc21 | 4 (≈ 1.43 µg/mL) | 6 (≈ 2.15 µg/mL) | 99
14 | CC(C)=CCC/C(C)=C/Cn1cc(C(=O)N2CCCCC2)c2cc(F)ccc21 | > 50 | > 50 | 99
15 | CCCCCCCCn1cc(CN(CCC)CCC)c2cc(F)ccc21 | 11 (≈ 3.97 µg/mL) | 35 (≈ 12.6 µg/mL) | 99
16 | CC(C)=CCC/C(C)=C/Cn1cc(CN2CCSCC2)c2cc(F)ccc21 | 15 (≈ 5.8 µg/mL) | 23 (≈ 8.89 µg/mL) | 99
17 | CC(C)=CCC/C(C)=C/Cn1cc(CN2CCCCC2)c2cc(F)ccc21 | 5 (≈ 1.84 µg/mL) | 11 (≈ 4.05 µg/mL) | 99
18 | CCCCCCCCn1ccc2c(F)cccc21 | > 50 | > 50 | 99
19 | CCCCCCCCn1cc(CN2CCC(C)CC2)c2c(F)cccc21 | 2 (≈ 0.717 µg/mL) | 5 (≈ 1.79 µg/mL) | 99
20 | CCCCN(CCCC)Cc1cn(C/C=C(\C)CCC=C(C)C)c2ccc(F)cc12 | 13 (≈ 5.36 µg/mL) | 25.5 (≈ 10.5 µg/mL) | 99
21 | CCCCCCCCn1cc(CNC2CCCC2)c2cc(F)ccc21 | 6 (≈ 2.07 µg/mL) | 21 (≈ 7.23 µg/mL) | 99
22 | CCCCCCCCn1cc(CN2CCC3(CC2)OCCO3)c2cc(OC)ccc21 | 5 (≈ 2.07 µg/mL) | 9 (≈ 3.73 µg/mL) | 99
23 | CCn1cc(CN2CCCCCC2)c2c(F)cccc21 | > 50 | > 50 | 99
24 | CCCCCCCCn1cc(CN2CCCCC2)c2cc(F)ccc21 | 6 (≈ 2.07 µg/mL) | 11 (≈ 3.79 µg/mL) | 99
25 | CCCCCCCCn1cc(CN2CCCCC2)c2ccc(F)cc21 | 6 (≈ 2.07 µg/mL) | 12 (≈ 4.13 µg/mL) | 99
26 | Fc1ccc2c(c1)c(CN1CCCCC1)cn2Cc1ccccc1 | 35 (≈ 11.3 µg/mL) | > 50 | 99
27 | CCCCCCCCn1cc(CN(CCCC)CCCC)c2cc(F)ccc21 | 11 (≈ 4.27 µg/mL) | > 50 | 99
28 | CCCCCCn1cc(CN2CCCCCC2)c2c(F)cccc21 | 8 (≈ 2.64 µg/mL) | 13 (≈ 4.3 µg/mL) | 99
29 | CCCCCCCCn1cc(CN2CCCCC2)c2ccccc21 | 14 (≈ 4.57 µg/mL) | 31 (≈ 10.1 µg/mL) | 99
